Test results as given in patent US20230053688A1, “METHODS TO ALTER LATENCY IN EBV+ MALIGNANCIES” (Cornell University, priority 2020, published 2023).
Structures can show the parent of a compound that is named as a salt. Where two headings read alike, the source gives them in different places.

Test system: LMP1 expression in Kem I cells
Test: microbe, parasite or virus in culture
Assay type: cell-based, EBV
Conditions: for fold induction at 2.5 µM: human gammaherpesvirus 4, 48 h; for Average LMP1 Fold Increase / Replicate 1-LMP1 Fold Increase / Replicate 2-LMP1 Fold Increase: Kem I cells, 48 hours
[1] = read-out: Average LMP1 Fold Increase, Kem I cells, 2.5 uM, 48 hours, average of replicates 1 and 2
[2] = read-out: Replicate 1-LMP1 Fold Increase, Kem I cells, 2.5 uM, 48 hours, fold change in LMP1 transcript vs vehicle
[3] = read-out: Replicate 2-LMP1 Fold Increase, Kem I cells, 2.5 uM, 48 hours, fold change in LMP1 transcript vs vehicle
[4] = 2.5 uM, average of replicates 1 and 2
[5] = 2.5 uM, fold change in LMP1 transcript vs vehicle
[6] = dose 2.5 uM, LMP1 transcript by in-well qRT-PCR, average of the two replicates
[7] = dose 2.5 uM, LMP1 transcript by in-well qRT-PCR, screen replicate 1
[8] = dose 2.5 uM, LMP1 transcript by in-well qRT-PCR, screen replicate 2
[9] = read-out: Average LMP1 Fold Increase, Kem I cells, dose 2.5 uM, 48 hours, LMP1 transcript by in-well qRT-PCR, average of the two replicates
[10] = read-out: Replicate 1-LMP1 Fold Increase, Kem I cells, dose 2.5 uM, 48 hours, LMP1 transcript by in-well qRT-PCR, screen replicate 1
[11] = read-out: Replicate 2-LMP1 Fold Increase, Kem I cells, dose 2.5 uM, 48 hours, LMP1 transcript by in-well qRT-PCR, screen replicate 2

Compound | Average LMP1 Fold Increase [4] | Replicate 1-LMP1 Fold Increase [5] | Replicate 2-LMP1 Fold Increase [5] | further results
CCN(CC)C(=O)c1ccc(C2=CC3(CCNCC3)Oc3cccc(O)c32)cc1 [ADL5859 HCl] |  |  |  | fold induction at 2.5 µM [1]: 1.02; fold induction at 2.5 µM [2]: 0.54; fold induction at 2.5 µM [3]: 1.5
Cc1ccc(S(=O)(=O)NC(=O)NN2CC3CCCC3C2)cc1 (stereo not drawn) [Gliclazide] |  |  |  | fold induction at 2.5 µM [1]: 0.73; fold induction at 2.5 µM [2]: 0.98; fold induction at 2.5 µM [3]: 0.49
O=C(NC(NC(=S)Nc1ccc(F)c([N+](=O)[O-])c1)C(Cl)(Cl)Cl)C(c1ccccc1)c1ccccc1 (stereo not drawn) [CGK 733] | 0.71 | 0.58 | 0.84 | 
Nc1ncnc2n[nH]c(Nc3ccc(F)cc3)c12 [CGP 57380] | 1.33 | 0.81 | 1.86 | 
Cl.Cl.O=S(=O)(NCCNC/C=C/c1ccc(Br)cc1)c1cccc2cnccc12 [H 89 2HCl] | 0.68 | 0.54 | 0.82 | 
CC1C(=O)OC2C(O)C34C5CC(C(C)(C)C)C36C(OC(=O)C6O)OC4(C(=O)O5)C12O (stereo not drawn) [Ginkgolide B] | 0.76 | 1.04 | 0.49 | 
Cc1cnc(-c2cc(N3CCN(C(=O)CCS(C)(=O)=O)CC3)ncc2Cl)c(C)c1 [PF-5274857] | 0.87 | 1.12 | 0.62 | 
C=CCc1cccc(/C=N/NC(=O)CN2CCN(Cc3ccccc3)CC2)c1O [PAC-1] | 0.78 | 0.78 | 0.78 | 
CCCS(=O)(=O)Nc1ccc(F)c(C(=O)c2c[nH]c3ncc(-c4ccc(Cl)cc4)cc23)c1F [Vemurafenib (PLX4032, RG7204)] |  |  |  | Average LMP1 Fold Increase [6]: 0.41 fold; Replicate 1-LMP1 Fold Increase [7]: 0.33 fold; Replicate 2-LMP1 Fold Increase [8]: 0.50 fold
O=C(O)/C=C/c1ccc(Cn2ccnc2)cc1 [Ozagrel] |  |  | 1.55 | fold induction at 2.5 µM [1]: 1.41; fold induction at 2.5 µM [2]: 1.27
COc1cc2ncnc(Nc3ccc(Cl)cc3F)c2cc1OC [ZM 306416] |  |  |  | Average LMP1 Fold Increase [6]: 0.85 fold; Replicate 1-LMP1 Fold Increase [7]: 0.70 fold; Replicate 2-LMP1 Fold Increase [8]: 1.00 fold
COc1cc(N2CCC(N3CCN(C)CC3)CC2)ccc1Nc1ncc(Cl)c(Nc2ccccc2P(C)(C)=O)n1 [AP26113] |  |  |  | fold induction at 2.5 µM [1]: 0.92; fold induction at 2.5 µM [2]: 1.07; fold induction at 2.5 µM [3]: 0.77
CC1(C)CCC(c2ccc(Cl)cc2)=C(CN2CCN(c3ccc(C(=O)NS(=O)(=O)c4ccc(N[C@H](CCN5CCOCC5)CSc5ccccc5)c(S(=O)(=O)C(F)(F)F)c4)cc3)CC2)C1 [ABT-263 (Navitoclax)] | 0.27 | 0.21 | 0.33 | 
C/C(=C\C(=O)Nc1ccccc1C(=O)O)c1ccc2ccccc2c1 [BIBR 1532] | 0.77 | 0.63 | 0.91 | 
O=C(/C=C\n1cnc(-c2cc(C(F)(F)F)cc(C(F)(F)F)c2)n1)NNc1cnccn1 [KPT-330] | 0.35 | 0.28 | 0.42 | 
CC(C)(Cc1ccc2ccccc2c1)NC[C@@H](O)COc1cccc(Cl)c1C#N [NPS-2143] | 0.74 | 0.87 | 0.62 | 
C=C1C(=O)O[C@@H]2/C=C(\C)CC/C=C(\C)CC[C@@H]12 [Costunolide] |  |  |  | fold induction at 2.5 µM [1]: 1.21; fold induction at 2.5 µM [2]: 0.79; fold induction at 2.5 µM [3]: 1.62

Compound | Average LMP1 Fold Increase [4] | Replicate 1-LMP1 Fold Increase [5] | Replicate 2-LMP1 Fold Increase [5] | further results
Cl.O=C(O)Cc1cccc(OCCCN(Cc2cccc(C(F)(F)F)c2Cl)CC(c2ccccc2)c2ccccc2)c1 [GW3965 HCl] | 0.27 | 0.20 | 0.35 | 
CC[C@H](NC(=O)[C@H](C)NC)C(=O)N1C[C@@H](O)C[C@H]1Cc1c(-c2[nH]c3cc(F)ccc3c2C[C@@H]2C[C@H](O)CN2C(=O)[C@H](CC)NC(=O)[C@H](C)NC)[nH]c2cc(F)ccc12 [Birinapant] |  |  |  | fold induction at 2.5 µM [1]: 1.03; fold induction at 2.5 µM [2]: 1.05; fold induction at 2.5 µM [3]: 1.02
CN(C)CCCCC(=O)Nc1ccc(NC(=S)NC(=O)c2ccc(C(C)(C)C)cc2)cc1 [Tenovin-6] |  |  |  | Average LMP1 Fold Increase [6]: 1.79 fold; Replicate 1-LMP1 Fold Increase [7]: 1.55 fold; Replicate 2-LMP1 Fold Increase [8]: 2.03 fold
C#CCN[C@@H]1CCc2ccccc21 [Rasagiline Mesylate] |  |  |  | fold induction at 2.5 µM [1]: 0.69; fold induction at 2.5 µM [2]: 0.86; fold induction at 2.5 µM [3]: 0.51
Cn1cnc2c(F)c(Nc3ccc(Br)cc3Cl)c(C(=O)NOCCO)cc21 [Selumetinib (AZD6244)] | 0.54 | 0.64 | 0.44 | 
COc1cc2c(cc1OC)CN(CCc1ccc(NC(=O)c3cc(OC)c(OC)cc3NC(=O)c3cnc4ccccc4c3)cc1)CC2 [Tariquidar] |  |  |  | fold induction at 2.5 µM [9]: 0.71; fold induction at 2.5 µM [10]: 0.56; fold induction at 2.5 µM [11]: 0.87
N#CSc1cc(SC#N)c(N)nc1N [PR-619] | 0.31 | 0.23 | 0.39 | 
CC(C)OC(=O)OCOP(=O)(CO[C@H](C)Cn1cnc2c(N)ncnc21)OCOC(=O)OC(C)C [Tenofovir Disoproxil Fumarate] |  |  |  | fold induction at 2.5 µM [9]: 0.56; fold induction at 2.5 µM [10]: 0.21; fold induction at 2.5 µM [11]: 0.9
Cc1cc(OCc2nnc(SC3CCCC3)n2-c2cccnc2)ccc1-c1ccc(S(C)(=O)=O)cc1 [NMS-873] |  |  |  | fold induction at 2.5 µM [1]: 1; fold induction at 2.5 µM [2]: 1.05; fold induction at 2.5 µM [3]: 0.95
CN(C)C(=O)c1ccc(S(=O)(=O)c2ccc(NC(=O)[C@@](C)(O)C(F)(F)F)c(Cl)c2)cc1 [AZD7545] | 0.67 | 0.40 | 0.94 | 
COc1cc(N2CCC(N)CC2)ccc1Nc1ncc(Cl)c(-c2c[nH]c3ccccc23)n1 [AZD3463] | 0.26 | 0.28 | 0.24 | 
CC(C)(C)Cn1c(N)nc2ccc(-c3[nH]c(C(C)(C)C)nc3-c3ccc(F)cc3)nc21 [LY2228820] | 0.60 | 0.63 | 0.56 | 
NCC(=O)Nc1ccc(-n2nc(C(F)(F)F)cc2-c2ccc3c(ccc4ccccc43)c2)cc1 [OSU-03012 (AR-12)] | 0.95 | 0.79 | 1.12 | 
CC(C)C[C@H](NC(=O)[C@@H](NC(=O)c1cccc(-c2ccccc2)n1)[C@@H](C)O)B(O)O [CEP-18770 (Delanzomib)] | 96.92 | 98.21 | 95.63 | 
COc1ccc2nc([S@@+]([O-])Cc3ncc(C)c(OC)c3C)[nH]c2c1 [Esomeprazole Sodium] |  |  |  | fold induction at 2.5 µM [1]: 0.3; fold induction at 2.5 µM [2]: 0.16; fold induction at 2.5 µM [3]: 0.44
Cc1ccc(-n2nccn2)c(C(=O)N2CCN(c3nc4cc(Cl)ccc4o3)CC[C@H]2C)c1 [Suvorexant (MK-4305)] |  |  |  | Average LMP1 Fold Increase [6]: 1.47 fold; Replicate 1-LMP1 Fold Increase [7]: 0.37 fold; Replicate 2-LMP1 Fold Increase [8]: 2.57 fold
